Experimental data: patent publication US6767918B2, “N-(aryl/heteroarylacetyl) amino acid esters, pharmaceutical compositions comprising same, and methods for inhibiting β-amyloid peptide release and/or its synthesis by use of such compounds” (Athena Neurosciences, Inc., priority 1996, dated 2004)

SMILES | melting point
Cc1ccc(CC(=O)NC(C)C(=O)OCC(C)C)cc1 (racemic) [Example 6, N-[(4-methylphenyl)acetyl]-D,L-alanine iso-butyl ester] | 102 to 104 °C
CC(C)COC(=O)C(C)NC(=O)Cc1cccnc1 (racemic) [Example 7, N-[(3-pyridyl)acetyl]-D,L-alanine iso-butyl ester] | 62 to 64 °C
CC(C)COC(=O)C(C)NC(=O)Cc1ccncc1 (racemic) [Example 12, N-[(4-pyridyl)acetyl]-D,L-alanine iso-butyl ester] | 64 to 66 °C
CC(C)COC(=O)[C@H](C)NC(=O)Cc1ccc(Cl)cc1 [Example 4, N-[(4-chlorophenyl)acetyl]-L-alanine iso-butyl ester] | 111 to 113 °C
CC(C)COC(=O)[C@H](C)NC(=O)Cc1ccc(Cl)c(Cl)c1 [Example 5, N-[(3,4-dichlorophenyl)acetyl]-L-alanine iso-butyl ester] | 81 to 83 °C
CC(C)COC(=O)[C@H](C)NC(=O)Cc1cccc2ccccc12 [Example 8, N-[(1-naphthyl)acetyl]-L-alanine iso-butyl ester] | 69 to 73 °C
CC(C)COC(=O)[C@H](C)NC(=O)Cc1ccc2ccccc2c1 [Example 9, N-[(2-naphthyl)acetyl]-L-alanine iso-butyl ester] | 128 to 129 °C
CC(C)COC(=O)[C@H](C)NC(=O)Cc1ccccc1 [Example 13, N-(phenylacetyl)-L-alanine iso-butyl ester] | 45 to 47 °C
CCOC(=O)[C@H](C)NC(=O)Cc1cc(F)cc(F)c1 [Example 64, N-[(3,5difluorophenyl)acetyl]alanine ethyl ester] | 93 to 95 °C
CC(C)COC(=O)[C@H](C)NC(=O)CC1CCCCC1 [Example 70, N-(cyclohexylacetyl)-L-alanine iso-butyl ester] | 92 to 93 °C
CC(C)COC(=O)[C@H](C)NC(=O)CC1CCCC1 [Example 71, N-(cyclopentylacetyl)-L-alanine iso-butyl ester] | 62 to 64 °C
CC(C)COC(=O)[C@H](C)NC(=O)CC1=CCCCC1 [Example 72, N-[(cyclohex-1-enyl)acetyl]-L-alanine iso-butyl ester] | 49 to 51 °C
